Measured values: US20250177351A1, “ISOINDOLINE COMPOSITIONS AND METHODS FOR TREATING NEURODEGENERATIVE DISEASE” (Cognition Therapeutics, Inc., priority 2022, published 2025)

What was measured:
[1] = system: CSF biomarkers (Aβ42, Aβ40, total tau, phosphorylated tau, NFL and neurogranin); experiment: Phase 1b/2a trial: CSF Alzheimer's disease biomarkers by ELISA; type: in vivo, human; conditions: AD patients, before and after treatment
Protocol: COG0102 clinical trial: This trial (ClinicalTrials.gov NCT02907567) was a randomized, double-blind, placebo-controlled clinical trial in mild to moderate Alzheimer's patients (MMSE 18-26) (See FIG. 1 for clinical trial design). The trial was conducted at six sites in Australia. Patients were randomized into placebo (n=5) or CT1812-treated groups: 90 mg (n=4), 280 mg (n=5) or 560 mg (n=5) and treated once daily for 28 days. Clinical chemistry was done at Sydpath (Sydney, AU). Pharmacokinetics were done at CPR Pharma Services (Adelaide, AU). Cerebrospinal fluid samples were taken at screening and day 21-28 of treatment and aliquoted. […] One set of CSF samples was analyzed for Alzheimer's disease biomarkers; protein measurements (Aβ42, Aβ40, total tau, tau phosphorylated at threonine 181 (phosphorylated tau), NFL and neurogranin) were performed using commercially available ELISA assays from Fujirebio according to the manufacturer's instructions (INNOTEST β-AMYLOID(1-42), INNOTEST β-AMYLOID(1-40), INNOTEST hTau Ag, INNOTEST PHOSPHO-TAU(181P), Uman Diagnostics NFL assay). Neurogranin was measured with a sandwich ELISA method using antibodies Ng2 and Ng22 developed at the University of Gotteborg (Kvartsberg et al. 2015). Identical aliquots of CSF, and plasma were analyzed for protein expression changes via LC/MSMS at Caprion (see below).

[2] = system: DIV21 hippocampal/cortical cultures with Aβ oligomers; experiment: Neurogranin expression study in vitro; type: cell-based; conditions: Aβ42 oligomers 500 nM, 1 hr, followed by CT1812 4.8 nM, 24 hr
Protocol: Neurons were fixed in 3.75% formaldehyde and stained with full-length neurogranin (Abcam catalogue #ab23570, used in combination with novel Ng7 to detect full length neurogranin inAlzheimer's disease patient brain IP; Kvartsberg et al. 2015 Blennow lab), MAP2 (Millipore), and 4G8 (Biolegend) antibodies. Imaging was performed on Cellomics VX automated microscope with a 20×, 0.75 NA objective and analyzed using a compartmental analysis algorithm to measure staining in the nucleus versus cytoplasm.

[3] = Phase 1 MAD study: safety assessments; type: in vivo, human
Protocol: In Part B, healthy young subjects in each cohort received the same dose once daily for 14 days after overnight fasting. Cohort dosing started at 280 mg, followed by 560 mg and 840 mg in subsequent cohorts. In each cohort, eight subjects received drug and two received placebo. A fourth cohort of healthy elderly subjects (≥65 years old) received a 560 mg dose vs. placebo daily for 14 days (seven active, two placebo).
Subjects were dosed in the morning with 240 mL of water after an 8-hour fast, and remained in a semi-reclined position for 1 hour and fasting for 2 hours post-administration, except for the fed cohort in Part A. Subjects in each MAD cohort were confined to the clinical facility from check-in on Day 0 until the pharmacokinetic sample was collected on Day 16, 48 hours after administration of the last dose on Day 14. Subjects returned to the clinical facility for follow-up visits on Days 24 and 35.
Safety variables, including incidence of adverse events (AEs), vital signs, clinical laboratory findings, 12-lead electrocardiographs (ECGs), physical examination, and affective and cognitive measures (Part B only), were summarized for all subjects who received study drug.

[4] = MAD, age ≤ 64 years, 280 mg (n = 8)
[5] = MAD, age ≤ 64 years, 560 mg (n = 8)
[6] = MAD, age ≤ 64 years, 840 mg (n = 8)
[7] = MAD, age ≥ 65 years, 560 mg (n = 7)

## CC(C)(C)Oc1cc(CCC(C)(C)N2Cc3ccc(S(C)(=O)=O)cc3C2)ccc1O [CT1812]
[1]
  biomarker levels (Aβ, tau, NFL) in CSF: remain unchanged
[2]
  full length neurogranin protein expression in neurons: restores neurogranin expression
[3]; 280 mg to 840 mg QD for 14 days, healthy subjects
  tolerability: well tolerated
[3]; MAD
  ECG: No ECG parameters or changes were assessed as clinically significant
[3]; MAD Total Active (n = 31)
  Number of Subjects with TEAE: Back pain: 2
  Number of Subjects with TEAE: Catheter site phlebitis: 2
  Number of Subjects with TEAE: Dizziness: 3
  Number of Subjects with TEAE: Dyspepsia: 3
  Number of Subjects with TEAE: Headache: 10
  Number of Subjects with TEAE: Nausea: 2
  Number of Subjects with TEAE: Procedural pain: 6
  Number of Subjects with TEAE: Upper respiratory tract infection: 8
  Number of Subjects with TEAE: Vomiting: 2
  Number of Subjects with at least one Treatment-Emergent AE: All TEAES: 25
[3]; [4]
  Number of Subjects with TEAE: Dizziness: 1
  Number of Subjects with TEAE: Dyspepsia: 1
  Number of Subjects with TEAE: Headache: 2
  Number of Subjects with TEAE: Nausea: 1
  Number of Subjects with TEAE: Upper respiratory tract infection: 5
  Number of Subjects with at least one Treatment-Emergent AE: All TEAES: 7
[3]; [5]
  Number of Subjects with TEAE: Catheter site phlebitis: 1
  Number of Subjects with TEAE: Dyspepsia: 1
  Number of Subjects with TEAE: Headache: 1
  Number of Subjects with TEAE: Procedural pain: 4
  Number of Subjects with TEAE: Upper respiratory tract infection: 1
  Number of Subjects with at least one Treatment-Emergent AE: All TEAES: 7
[3]; [6]
  Number of Subjects with TEAE: Back pain: 1
  Number of Subjects with TEAE: Catheter site phlebitis: 1
  Number of Subjects with TEAE: Dizziness: 1
  Number of Subjects with TEAE: Dyspepsia: 1
  Number of Subjects with TEAE: Headache: 4
  Number of Subjects with TEAE: Nausea: 1
  Number of Subjects with TEAE: Procedural pain: 2
  Number of Subjects with TEAE: Upper respiratory tract infection: 2
  Number of Subjects with TEAE: Vomiting: 2
  Number of Subjects with at least one Treatment-Emergent AE: All TEAES: 6
[3]; [7]
  Number of Subjects with TEAE: Back pain: 1
  Number of Subjects with TEAE: Dizziness: 1
  Number of Subjects with TEAE: Headache: 3
  Number of Subjects with at least one Treatment-Emergent AE: All TEAES: 5
[3]; MAD, subject on 840 mg, respiratory picornavirus infection deemed unrelated to study treatment
  serious AE (SAE): One
[3]; MAD, improvement after discontinuing CT1812
  subjects developing a rash: One
[3]; MAD, including one subject on placebo
  subjects with increase in liver function tests below 3× the upper limit of normal: Four
